The data set can be described thus: physchem. Particulars: buffer, pH 7.4, logD.

Regarding `CC1(c2ccc(OC(F)F)cc2)NC(=O)N(CC(=O)c2ccc3c(c2)OCO3)C1=O` (configuration not stated), the chromatographic logD was 4.9.

`COc1ccc(-c2cn(CC(=O)c3ccc(F)cc3F)cn2)cc1` had a chromatographic logD of 4.68. As to `CC1(c2ccc(OC(F)(F)F)cc2)NC(=O)N(CC(=O)c2ccc(F)cc2F)C1=O` (configuration not stated), the chromatographic logD amounted to 6.05. `CCOc1ccc(C2(C)NC(=O)N(CC(=O)c3ccc(F)cc3F)C2=O)cc1` (configuration not stated) registered a chromatographic logD of 5.43.

As for `COc1ccc(C2(C)NC(=O)N(CC(=O)c3ccc(F)cc3F)C2=O)c(F)c1` (configuration not stated), the chromatographic logD was 5.05. Under `CC1(c2ccc(OC(F)F)cc2)NC(=O)N(CC(=O)c2ccc(Cl)s2)C1=O` (configuration not stated) stands 5.49. `CCC1(c2ccc(C#N)cc2)NC(=O)N(CC(=O)c2ccc(F)cc2F)C1=O` (configuration not stated) came in with a chromatographic logD of 4.99. Under `CC1(c2ccc(OC(F)F)cc2)NC(=O)N(CC(=O)c2cccs2)C1=O` (configuration not stated) stands 4.59; under `COc1cc(C2(C)NC(=O)N(CC(=O)c3ccc(F)cc3F)C2=O)cc(OC)c1OC` (configuration not stated), 4.47.

`COc1ccc(C2(C)NC(=O)N(CCC(=O)c3ccc(F)cc3)C2=O)cc1` (configuration not stated) yielded a chromatographic logD of 4.6. This chromatographic logD and that of the compound before are within 0.2 log units of each other. For the compound `Cc1ccc(C(=O)CN2C(=O)NC(C)(c3ccc(OC(F)F)cc3)C2=O)s1` (configuration not stated), the chromatographic logD was 5.06. In the case of `CC1(c2ccc(N)cc2)NC(=O)N(CC(=O)c2ccc(F)cc2F)C1=O` (configuration not stated), the chromatographic logD stood at 3.38. In turn, `CC1(c2ccc(Cl)cc2)NC(=O)N(CC(=O)c2ccc(F)cc2)C1=O` (configuration not stated) yielded a chromatographic logD of 5.28.

`COc1ccc(C(=O)CN2C(=O)NC(C)(c3ccc(OC(F)F)cc3)C2=O)cc1F` (configuration not stated) had a chromatographic logD of 5.03. For `CC1(c2ccc(C#N)cc2)NC(=O)N(CC(=O)C2CCCCC2)C1=O` (configuration not stated), the chromatographic logD was 5.07. Turning to `CC1(c2ccc(OC(F)F)cc2)NC(=O)N(CC(=O)c2nccs2)C1=O` (configuration not stated), the chromatographic logD came to 4.45.

`Cc1cc(C(=O)CN2C(=O)NC(C)(c3ccc(OC(F)F)cc3)C2=O)c(C)[nH]1` (configuration not stated): the chromatographic logD came to 4.12.

Consider `CC1(c2ccc(OC(F)F)cc2)NC(=O)N(CC(=O)c2ccccc2)C1=O` (configuration not stated), for which the chromatographic logD came to 4.97. `CC1(c2ccc(OC(F)F)cc2)NC(=O)N(CC(=O)N2CCCC2)C1=O` (configuration not stated) registered a chromatographic logD of 3.37. In the case of `CC1(c2ccc(C#N)cc2)NC(=O)N(CC2(c3ccc(F)cc3F)COC2)C1=O` (configuration not stated), the chromatographic logD was found to be 4.21. The compound `CC1(c2ccc(Br)nc2)NC(=O)N(CC(=O)c2ccc(F)cc2F)C1=O` (configuration not stated) yielded a chromatographic logD of 4.67. `CC1(c2ccc(C(F)(F)F)cc2)NC(=O)N(CC(=O)c2ccc(F)cc2F)C1=O` (configuration not stated) displayed a chromatographic logD of 6.01.

`COc1ccccc1C(=O)CN1C(=O)NC(C)(c2ccc(C#N)cc2)C1=O` (configuration not stated) displayed a chromatographic logD of 4.45. On to `CC1(c2ccc(OC(F)F)cc2)NC(=O)N(CC(=O)c2cccc(F)c2)C1=O` (configuration not stated), for which the chromatographic logD worked out at 5.13. Take `Cc1ccc(C)c(C(=O)CN2C(=O)NC(C)(c3ccc(OC(F)F)cc3)C2=O)c1` (configuration not stated): the chromatographic logD was found to be 5.97. In turn, `CC1(c2ccc(OC(F)F)cc2)NC(=O)N(CC(=O)c2ccccn2)C1=O` (configuration not stated) had a chromatographic logD of 4.35. For the compound `CC1(c2ccc(OC(F)F)cc2)NC(=O)N(CC(=O)c2ccncc2)C1=O` (configuration not stated), the chromatographic logD is 3.52. `COc1ccc(C2(C)NC(=O)N(CC(=O)c3ccc(F)cc3)C2=O)cc1` (configuration not stated) gave a chromatographic logD of 4.53. Under `CC1(c2ccc(C#N)cc2)NC(=O)N(CC(=O)c2ncc(F)cc2F)C1=O` (configuration not stated) stands 3.89; under `CC1(c2ccc(Cl)cc2)NC(=O)N(CCC(=O)c2ccc(F)cc2)C1=O` (configuration not stated), 5.35; under `CC1(c2ccc(-n3ccnc3)cc2)NC(=O)N(CC(=O)c2ccc(F)cc2F)C1=O` (configuration not stated), 3.84. Under `COc1ccc(C2(C)NC(=O)N(Cc3ccc(F)cc3)C2=O)cc1` (configuration not stated) stands 4.72; under `CC1(c2ccc(Br)cc2F)NC(=O)N(CC(=O)c2ccc(F)cc2F)C1=O` (configuration not stated), 5.8; under `CC1(c2ccc(C#N)s2)NC(=O)N(CC(=O)c2ccc(F)cc2F)C1=O` (configuration not stated), 4.67. `CC1(c2ccc(Cl)cc2)NC(=O)N(CC(=O)c2ccc(F)cc2F)C1=O` (configuration not stated) yielded a chromatographic logD of 5.54. `CC1(c2ccc(C#N)cc2)NC(=O)N(CCc2ccc(F)cc2)C1=O` (configuration not stated) returned a chromatographic logD of 4.56. With `COc1ccc(C2(C)NC(=O)N(CC(O)c3ccc(F)cc3F)C2=O)cc1` (configuration not stated), the chromatographic logD came to 3.96. As for `COc1ccc(C2(C)NC(=O)N(CCc3ccc(F)cc3)C2=O)cc1` (configuration not stated), the chromatographic logD is 4.84. On to `O=C(CN1C(=O)NC2(CCc3cc(Br)ccc32)C1=O)c1ccc(F)cc1F` (configuration not stated), for which the chromatographic logD was 5.71.

In the case of `CC1(c2cccc(Br)c2)NC(=O)N(CC(=O)c2ccc(F)cc2F)C1=O` (configuration not stated), the chromatographic logD is 5.72. Regarding `CC1(c2ccc(C#N)cc2)NC(=O)N(CC(=O)C23CC4CC(CC(C4)C2)C3)C1=O` (configuration not stated), the chromatographic logD came out at 6.31. The result for `CC1(c2ccc(C#N)cc2)NC(=O)N(CC(=O)c2cccc(C(F)(F)F)c2)C1=O` (configuration not stated) reads 5.3; that for `COc1ccc(F)cc1C(=O)CN1C(=O)NC(C)(c2ccc(OC(F)F)cc2)C1=O` (configuration not stated), 5.42. Compound `CCCC1(c2ccc(Br)cc2)NC(=O)N(CC(=O)c2ccc(F)cc2F)C1=O` (configuration not stated) yielded a chromatographic logD of 6.64. `CC(C)C1(c2ccc(Br)cc2)NC(=O)N(CC(=O)c2ccc(F)cc2F)C1=O` (configuration not stated) displayed a chromatographic logD of 6.57. Take `CC1(c2ccc(Br)cn2)NC(=O)N(CC(=O)c2ccc(F)cc2F)C1=O` (configuration not stated): the chromatographic logD was found to be 4.87.

Regarding `CC1(c2ccc(C#N)cc2)NC(=O)N(Cc2ccc(F)cc2)C1=O` (configuration not stated), the chromatographic logD is 4.5. The result for `CC1(c2ccc(Br)cc2)CC(=O)N(CC(=O)c2ccc(F)cc2F)C1=O` (configuration not stated) reads 6.86. On to `COc1cccc(C(=O)CN2C(=O)NC(C)(c3ccc(C#N)cc3)C2=O)c1` (configuration not stated), for which the chromatographic logD stood at 4.39. In turn, `COc1cccc(C2(C)NC(=O)N(CC(=O)c3ccc(F)cc3F)C2=O)c1` (configuration not stated) returned a chromatographic logD of 4.96. Compound `CC1(c2ccncc2)NC(=O)N(CC(=O)c2ccc(F)cc2F)C1=O` (configuration not stated) had a chromatographic logD of 3.04.

For `COc1ccc(C2(C)NC(=O)N(CC(=O)c3ccc(F)cc3F)C2=O)cc1F` (configuration not stated), the chromatographic logD was 4.84. As to `CC1(c2ccc(C#N)cc2)NC(=O)N(CC(=O)c2nccs2)C1=O` (configuration not stated), the chromatographic logD is 3.42. In turn, `CN1C(=O)N(CC(=O)c2ccc(F)cc2F)C(=O)C1(C)c1ccc(C#N)cc1` (configuration not stated) registered a chromatographic logD of 5.22.

`CC1(c2ccc(Cl)cc2)NC(=O)N(C(=O)c2ccc(F)cc2F)C1=O` (configuration not stated) gave a chromatographic logD of 3.72.

The compound `CC1(c2ccc(C#N)cc2)NC(=O)N(CCC(=O)c2ccc(F)cc2)C1=O` (configuration not stated) came in with a chromatographic logD of 4.4. The result for `C[C@@]1(c2ccc(C#N)cc2)NC(=O)N(CC(=O)c2ccc(F)cc2F)C1=O` reads 4.51; that for `N#Cc1ccc(-c2cn(CC(=O)c3ccc(F)cc3F)cn2)cc1`, 4.58.

As to `CC1(c2ccc(OC(F)F)cc2)NC(=O)N(CC(=O)N2CCCCC2)C1=O` (configuration not stated), the chromatographic logD amounted to 4.03. Take `COc1ccc(C(=O)CN2C(=O)NC(C)(c3ccc(OC(F)F)cc3)C2=O)cc1` (configuration not stated): the chromatographic logD was 4.92. As to `CC1(c2ccc(OC(F)F)cc2)NC(=O)N(CC(=O)c2ccccc2F)C1=O` (configuration not stated), the chromatographic logD turned out to be 5.23. `CC(=O)N1C(=O)N(CC(=O)c2ccc(F)cc2F)C(=O)C1(C)c1ccc(C#N)cc1` (configuration not stated) yielded a chromatographic logD of 5.77. `CC1(c2ccc(C#N)cc2)NC(=O)N(CC(=O)c2cccc([N+](=O)[O-])c2)C1=O` (configuration not stated) registered a chromatographic logD of 4.25.

Compound `CC1(c2cccc(NS(C)(=O)=O)c2)NC(=O)N(CC(=O)c2ccc(F)cc2F)C1=O` (configuration not stated) had a chromatographic logD of 3.67. In turn, `CC1(c2ccc(Cl)cc2)NC(=O)N(Cc2ccc(F)cc2)C1=O` (configuration not stated) registered a chromatographic logD of 5.59. Turning to `N#Cc1ccc(-c2cnn(CC(=O)c3ccc(F)cc3F)c2)cc1`, the chromatographic logD was found to be 5.17.

Turning to `CC1(c2ccc(C#N)cn2)NC(=O)N(CC(=O)c2ccc(F)cc2F)C1=O` (configuration not stated), the chromatographic logD is 3.97. In turn, `COc1ccc(C2(C)NC(=O)N(CC(=O)c3ccc(F)cc3F)C2=O)cc1` (configuration not stated) showed a chromatographic logD of 4.78. `CC1(c2ccc(N3CCOCC3)cc2)NC(=O)N(CC(=O)c2ccc(F)cc2F)C1=O` (configuration not stated) displayed a chromatographic logD of 4.45.

In turn, `COc1ccc(C(=O)CN2C(=O)NC(C)(c3ccc(C#N)cc3)C2=O)cc1` (configuration not stated) gave a chromatographic logD of 4.25. The result for `CC1(c2ccc(OC(F)F)cc2)NC(=O)N(CC(=O)c2ccc[nH]2)C1=O` (configuration not stated) reads 3.91; that for `CC1(c2ccc(C#N)cc2)NC(=O)N(CC(=O)c2ccc(F)cc2)C1=O` (configuration not stated), 4.26; that for `CC(=O)Nc1ccc(C2(C)NC(=O)N(CC(=O)c3ccc(F)cc3F)C2=O)cc1` (configuration not stated), 3.28. The result for `CC1(c2ccc(Br)cc2)CCN(CC(=O)c2ccc(F)cc2F)C1=O` (configuration not stated) reads 6.74; that for `O=C(CN1C(=O)NC(c2ccc(Br)cc2)(C(F)(F)F)C1=O)c1ccc(F)cc1F` (configuration not stated), 6.8. Compound `CC1(c2ccc(C#N)nc2)NC(=O)N(CC(=O)c2ccc(F)cc2F)C1=O` (configuration not stated) registered a chromatographic logD of 3.94. Under `CC1(c2ccc(C#N)cc2)NC(=O)N(CC(F)(F)c2ccc(F)cc2F)C1=O` (configuration not stated) stands 5.1. In turn, `COc1cc(C2(C)NC(=O)N(CC(=O)c3ccc(F)cc3F)C2=O)ccc1OC(F)F` (configuration not stated) came in with a chromatographic logD of 5.5. Compound `COc1ccc(C2(C)NC(=O)N(C(=O)c3ccc(F)cc3F)C2=O)cc1` (configuration not stated) registered a chromatographic logD of 3.43. Under `CCC1(c2ccc(Br)cc2)NC(=O)N(CC(=O)c2ccc(F)cc2F)C1=O` (configuration not stated) stands 6.17; under `CC1(c2ccc(C#N)cc2)NC(=O)N(C2Cc3cc(F)cc(F)c3C2=O)C1=O` (configuration not stated), 4.33.

In turn, `CC1(c2ccc(OC(F)F)cc2)NC(=O)N(CC(=O)c2ccc(F)cc2)C1=O` (configuration not stated) had a chromatographic logD of 5.08. Take `CC1(c2cccc(C#N)c2)NC(=O)N(CC(=O)c2ccc(F)cc2F)C1=O` (configuration not stated): the chromatographic logD was 4.51. Under `Cc1ccc(C2(C)NC(=O)N(CC(=O)c3ccc(F)cc3F)C2=O)cc1` (configuration not stated) stands 5.41. On to `C[C@]1(c2ccc(C#N)cc2)NC(=O)N(CC(=O)c2ccc(F)cc2F)C1=O`, for which the chromatographic logD came to 4.51.

Consider `CC1(c2ccc(Cl)cc2)NC(=O)N(CCc2ccc(F)cc2)C1=O` (configuration not stated), for which the chromatographic logD is 5.68.

Compound `CC1(c2ccc(OC(F)F)cc2)NC(=O)N(CC(=O)c2cccnc2)C1=O` (configuration not stated) gave a chromatographic logD of 3.54.
